The source of these data is ChEMBL document CHEMBL4376882, “Photodynamic Therapy for ras-Driven Cancers: Targeting G-Quadruplex RNA Structures with Bifunctional Alkyl-Modified Porphyrins” (J Med Chem, 2020).

One may read the Kd as the concentration at which binding is half-saturated. Read a low Kd as a tighter complex. By EC50 is commonly meant the concentration needed to bring the measured effect to its halfway point.

Data set [1] deals with DNA. Nature of the data set: Binding affinity to DNA (unknown origin) strands containing 95 and 89 nucleotides in ratio of 1:2 assessed as interaction between G4 motif of 95 nucleotides and biotinylated compound at 0.2 to 0.4 uM at pH 7.4 after 1 hr by biotin-streptavidin pull-down assay. The class given is nucleic-acid assay.
Data set [2] deals with DNA. Nature of the data set: Binding affinity to DNA (unknown origin) strands containing 95 and 89 nucleotides in ratio of 1:2 assessed as presence of ssDNA when G4 motif of 95 nucleotides interact with biotinylated compound at > 0.4 uM at pH 7.4 after 1 hr by biotin-streptavidin pull-down assay. The class given is nucleic-acid assay.
In data set [3] the test system is RNA. The data set is described as follows: Binding affinity to total RNA in human PANC1 cells assessed as increase in amount of KRAS mRNA in recovered RNA from biotin-streptavidin pulled down at 0.2 to 0.6 uM at pH 7.4 and 4 degree C using biotinylated compound by qRT-PCR analysis relative to control. It counts as cell-based.
Data set [4] relates to RNA. Nature of the data set: Binding affinity to total RNA in human PANC1 cells assessed as increase in amount of HPRT mRNA in recovered RNA from biotin-streptavidin pulled down at 0.2 to 0.6 uM at pH 7.4 and 4 degree C using biotinylated compound by qRT-PCR analysis. It counts as cell-based.
For data set [5], the system named is RNA. Nature of the data set: Binding affinity to total RNA in human PANC1 cells assessed as increase in amount of beta2-microglobulin mRNA in recovered RNA from biotin-streptavidin pulled down at 0.2 to 0.6 uM at pH 7.4 and 4 degree C using biotinylated compound by qRT-PCR analysis. It counts as cell-based.
Data set [6] deals with RNA. The data set is described as follows: Binding affinity to total RNA in human PANC1 cells assessed as increase in amount of NRAS mRNA in recovered RNA from biotin-streptavidin pulled down at 0.2 to 0.6 uM at pH 7.4 and 4 degree C using biotinylated compound by qRT-PCR analysis relative to control. It counts as cell-based. (Quantitative PCR measures a nucleic acid by following its amplification.)

A short description of data set [7]: Drug uptake in human PANC1 cells at 5 uM after 16 hrs by FACS analysis. The class given is ADME, cell-based. The settings on record: panc-1, 16 h. On the technique in general: In flow cytometry, cells or beads pass a laser one at a time.
Data set [8] can be described thus: Drug uptake in human PANC1 cells at 5 uM after 2 hrs by FACS analysis. It counts as ADME, cell-based. The conditions noted are these: panc-1, 2 h.
The subject of data set [9] is PANC-1. The data set is described as follows: Antitumor activity against human PANC1 cells xenografted in SCID mouse assessed as reduction in tumor growth at 30 mg/kg administered intratumorally measured after 14 days by micrometer caliper method. The class given is functional, organism-based. For orientation: A xenograft is tissue or cells of one species grown in another, often human tumour cells in immunodeficient mice.

Data set [10] deals with PANC-1. Nature of the data set: Photodynamic antitumor activity against human PANC1 cells xenografted in SCID mouse assessed as reduction in tumor growth at 30 mg/kg administered intratumorally after 2 hrs photoirradiated by diode laser at 193 J/cm2 measured after 14 days by micrometer caliper method. The class given is functional, organism-based.
Data set [11] has as its system Quadruplex DNA. The data set is described as follows: Binding affinity to human KRAS utr-z RNA g-quadruplex assessed as compound-RNA complex stoichiometry ratio of 4:1 by Job's plot analysis. It counts as nucleic-acid assay.
Data set [12] can be described thus: Binding affinity to 20-mer stem-loop RNA (unknown origin) assessed as compound-RNA complex stoichiometry ratio of 2:1 by Job's plot analysis.
Data set [13] concerns Quadruplex DNA. Nature of the data set: Binding affinity to human KRAS utr-z RNA g-quadruplex assessed as compound-RNA complex stoichiometry ratio of 1:1 by Job's plot analysis. It counts as nucleic-acid assay.
Data set [14] relates to PANC-1. Nature of the data set: Cytotoxicity against human PANC1 cells assessed as reduction in metabolic activity at 20 nM after 24 to 72 hrs in dark followed by photoirradiation in presence of NADH by resazurin assay. It counts as functional, cell-based.
Data set [15] can be described thus: Binding affinity to NRAS RNA g-quadruplex (unknown origin) at 40 degree C by SPR analysis. It counts as nucleic-acid assay.
The target of data set [16] is Quadruplex DNA. The data set is described as follows: Binding affinity to human KRAS utr-z RNA g-quadruplex at 40 degree C by SPR analysis. It counts as nucleic-acid assay.
For data set [17], the system named is PANC-1. Nature of the data set: Cytotoxicity against human PANC1 cells assessed as reduction in metabolic activity after 48 hrs in dark followed by photoirradiation in presence of NADH by resazurin assay. It counts as functional, cell-based. The conditions noted are these: PANC-1, light or radiation study.
Data set [18] relates to MIA PaCa-2. Nature of the data set: Cytotoxicity against human MIAPaCa2 cells harboring G12C point mutation assessed as reduction in metabolic activity after 48 hrs in dark followed by photoirradiation in presence of NADH by resazurin assay. It counts as functional, cell-based.
In data set [19] the test system is HEK293. Nature of the data set: Cytotoxicity against human HEK293 cells assessed as reduction in metabolic activity after 24 to 72 hrs in dark followed by photoirradiation in presence of NADH by resazurin assay. The class given is ADME, cell-based.
Data set [20] deals with PANC-1. Nature of the data set: Cytotoxicity against human PANC1 cells assessed as reduction in metabolic activity at 20 nM after 24 to 72 hrs in dark followed by photoirradiation in presence of NADH and NAC by resazurin assay. It counts as functional, cell-based.
In data set [21] the target is Quadruplex DNA. Nature of the data set: Binding affinity to NRAS RNA g-quadruplex (unknown origin) by fluorescence spectroscopy. The class given is nucleic-acid assay.
For data set [22], the target named is Quadruplex DNA. The data set is described as follows: Binding affinity to human KRAS utr-1 RNA g-quadruplex by fluorescence spectroscopy. It counts as nucleic-acid assay.
Data set [23] addresses Quadruplex DNA. The data set is described as follows: Binding affinity to human KRAS utr-c RNA g-quadruplex by fluorescence spectroscopy. It counts as nucleic-acid assay.
Data set [24] deals with Quadruplex DNA. Nature of the data set: Binding affinity to human KRAS utr-z RNA g-quadruplex by fluorescence spectroscopy. It counts as nucleic-acid assay.
Data set [25] can be described thus: Drug uptake in human PANC1 cells in presence of dynamin-inhibitor dynasore. It counts as ADME, cell-based. The settings on record: panc-1.

SMILES strings stand for the structures. Activity calls are given as the source filed them. The rule behind the calls is not given here.

Turning to `C[n+]1ccc(-c2c3nc(c(-c4cc[n+](C)cc4)c4ccc([nH]4)c(-c4cc[n+](CCCCCCCCCCCCNC(=O)CCCC[C@@H]5SC[C@@H]6NC(=O)N[C@@H]65)cc4)c4nc(c(-c5cc[n+](C)cc5)c5ccc2[nH]5)C=C4)C=C3)cc1`, the outcome in [1], in [2] and in data set [6] was Active. Moreover, the fold change (FC) in data set [3] worked out at 25. The outcome in data set [4] and in data set [5] was inactive.

For `C[n+]1ccccc1-c1c2nc(c(-c3cccc[n+]3C)c3ccc([nH]3)c(-c3cccc[n+]3C)c3ccc([nH]3)c(-c3cccc[n+]3C)c3nc1C=C3)C=C2.[Cl-].[Cl-].[Cl-].[Cl-]`, the values for the Drug uptake result in data set [7] and in data set [8] were “Active” and “Not Active”, respectively. In addition, the result in data set [9] and in data set [10] was inactive.

Consider `C[n+]1ccc(-c2c3nc(c(-c4cc[n+](C)cc4)c4ccc([nH]4)c(-c4cc[n+](C)cc4)c4ccc([nH]4)c(-c4cc[n+](C)cc4)c4nc2C=C4)C=C3)cc1`, for which the result in data set [11], in data set [12] and in data set [13] was Active.

Regarding `CCCCCCCCCCCCCCCC[n+]1ccc(-c2c3nc(c(-c4cc[n+](C)cc4)c4ccc([nH]4)c(-c4cc[n+](C)cc4)c4nc(c(-c5cc[n+](C)cc5)c5ccc2[nH]5)C=C4)C=C3)cc1.[I-].[I-].[I-].[I-]`, the outcome in data set [14] and in data set [18] was Active. In addition, the Kd lay in the range of 56 to 98 nM in data set [15] and 82 to 202 nM in [16]. The EC50 in data set [17] turned out to be 19.2 nM. In addition, the Activity result in [19] is given as “Non-Toxic”. In data set [20], the result was inactive.

`CCCCCCCCCCCC[n+]1ccc(-c2c3nc(c(-c4cc[n+](C)cc4)c4ccc([nH]4)c(-c4cc[n+](C)cc4)c4nc(c(-c5cc[n+](C)cc5)c5ccc2[nH]5)C=C4)C=C3)cc1.[I-].[I-].[I-].[I-]`: the result in [14] and in data set [18] was Active. Besides, the dissociation constant (Kd) in data set [15] lay within 56 to 98 nM; in data set [16] it was 82 to 202 nM. In data set [17], the EC50 came to 13.1 nM. For the same molecule, in data set [19], the Activity entry is recorded as “Non-Toxic”. For the same molecule, the result in data set [20] was inactive.

As for `C[n+]1ccc(-c2c3nc(c(-c4cc[n+](C)cc4)c4ccc([nH]4)c(-c4cc[n+](C)cc4)c4nc(c(-c5cc[n+](C)cc5)c5ccc2[nH]5)C=C4)C=C3)cc1.[Cl-].[Cl-].[Cl-].[Cl-]` [TMPYP4 CHLORIDE], the Kd in data set [21] was found to be 301 nM; in data set [22] it was 454 nM; in data set [23], 1020 nM; in data set [24], 681 nM. Further, the results for the Drug uptake entry in data set [7], in data set [8] and in data set [25] were “Active”, “Not Active” and “Active”, respectively.
